{"source": "patent US8039468B2", "about": "“Method of inhibition of respiratory depression using positive allosteric AMPA receptor modulators” (The Governors of the University of Alberta, priority 2006, dated 2011)", "key": {"XII motorneuron": {"system": "XII motorneuron", "type": "cell-based, rat", "details": "compound in bathing medium, TTX present"}, "[1]": {"system": "inspiratory neuron within the preBötzinger complex", "assay": "Whole-cell recording from inspiratory neuron within the preBötzinger complex, medullary slice", "type": "cell-based, rat"}, "[2]": {"system": "medullary slice preparations (preBötC, XII motoneuron nucleus)", "assay": "Medullary slice preparation, respiratory rhythm (XII nerve root discharge)", "parameters": "species or system rat", "details": "for DAMGO-induced suppression of inspiratory discharge amplitude, focal injection into XII motorneuron nucleus / DAMGO-induced suppression of respiratory rhythm, focal injection into preBötC: newborn (P2) slice, CX614 200 μM, Compound A 1 mM, DAMGO in bath", "procedure": "The medullary slice preparation is a derivative of the brainstem-spinal cord preparation. See, Smith J. C., et al. (1991). It contains the minimum component of neuronal populations within the ventrolateral medulla necessary for generating a respiratory rhythm, the preBötC. The medullary slice also contains a significant portion of the rostral ventral respiratory group, hypoglossal nucleus and XII cranial nerve rootlets from which inspiratory motor discharge is recorded.\nBrainstem-spinal cords isolated from newborn rats were pinned down, ventral surface upward, on a paraffin-coated block. See, Funk, G. D., et al. (1993); Smith, J. C., et al. (1991). The block was mounted in the vise of a vibratome bath (Leica, VT1000S). […] A single transverse slice containing the preBötC and more caudal reticular formation regions was then cut (500-600 μm thick), transferred to a recording chamber and pinned down onto a Sylgard elastomer. The medullary slice was continuously perfused with a bathing solution identical to that used for the brainstem-spinal cord preparation with the exception that in some cases the K^+ concentration was increased to 9 mM which facilitates long-term generation of stable rhythm (>5 hours) by these preparations. See, Funk, G. D., et al. (1993); Smith, J. C., et al. (1991). Recordings were made from the hypoglossal (XII) cranial nerve roots, cervical (C4) ventral roots and neuronal population discharge within the ventrolateral medulla with suction electrodes placed over the nerve roots or on the surface of the rhythmic slice preparations."}, "[3]": {"system": "perfused heart in situ preparations", "assay": "Perfused heart in situ preparation, phrenic nerve discharge", "parameters": "species or system rat", "details": "fentanyl 4 nM, then CX546 50 μM in perfusate"}, "[4]": {"system": "brainstem-spinal cord preparations", "assay": "Brainstem-spinal cord preparation, rhythmic respiratory discharge (C4 ventral root)", "parameters": "species or system rat", "text": "The fetal and neonatal brainstem-spinal cord preparations have been well-characterized and shown to generate complex, coordinated patterns of respiratory-related activity. See, Smith J. C. et al. (1990) and Greer, J. J. et al. (1992). Recordings from cervical ventral and hypoglossal cranial roots provide information regarding the pharmacology of respiratory rhythm generating networks and the pathways transmitting that respiratory drive to key output components of the respiratory motor system, without the confounding influence of peripheral chemoreceptors and supramedullary structures.\nBrainstem-spinal cord preparations were carried out as follows: Sprague-Dawley (SD) rat fetuses were delivered from timed-pregnant dams anesthetized with halothane (2% delivered in 95% O2 and 5% CO2) and maintained at 37° C. by radiant heat, following procedures approved by the Animal Welfare Committee at the University of Alberta. The timing of pregnancies was determined by vaginal lavage of the dam. Newborn rat pups were anesthetized with metofane. Newborn pups and embryos were then decerebrated and the brainstem-spinal cord was dissected following procedures similar to those established for perinatal rats. See, Smith, J. C., et al. (1990) J. Neurophysiol. 64:1149-1169; Greer, J. J., et al. (1992) J. Neurophysiol. 67:996-999. The neuraxis was continuously perfused at 27±1° C. (perfusion rate 5 ml/minute, chamber volume of 1.5 ml) with modified Kreb's solution that contained (mM): 128 NaCl, 3.0 KCl, 1.5 CaCl2, 1.0 MgSO4, 24 NaHCO3, 0.5 NaH2PO4, and 30 D-glucose equilibrated with 95% O2-5% CO2 (pH=7.4)."}, "rats": {"system": "rats", "assay": "Thermal nociception, hind paw withdrawal test", "type": "in vivo, rat"}, "[5]": {"details": "listed as 4-(BENZOFURAZAN-5-YLCARBONYL)MORPHOLINE"}}, "note": "Entries after “also recorded” stand apart in the source; their conditions may differ. Marks after values point to notes of the source that are not given here.", "data": [{"smiles": "O=C(c1ccc2nonc2c1)N1CCOCC1", "note": "[Compound A, 4-(benzofurazan-5-ylcarbonyl)morpholine]", "values": [{"measurement": "amplitude and duration of glutamate-induced inward currents", "setting": "XII motorneuron", "value": "not significantly altered"}, {"measurement": "persistence of enhancement of respiratory rhythm", "setting": "Sprague-Dawley rat; rat, in vivo", "value": "at least 1 hour"}, {"measurement": "current amplitude in response to glutamate injections", "setting": "[1]; voltage clamp, TTX present, bath-applied compound", "value": "increases"}, {"measurement": "DAMGO-induced suppression of inspiratory discharge amplitude, focal injection into XII motorneuron nucleus", "setting": "[2]", "value": "alleviates some of the amplitude depression"}, {"measurement": "DAMGO-induced suppression of respiratory rhythm, focal injection into preBötC", "setting": "[2]", "value": "alleviates the frequency depression"}, {"measurement": "DAMGO-induced suppression of inspiratory discharge amplitude, focal injection into XII motorneuron nucleus", "setting": "[2]; [5]", "value": "alleviates DAMGO induced suppression of respiratory rhythm"}, {"measurement": "DAMGO-induced suppression of respiratory rhythm, focal injection into preBötC", "setting": "[2]; [5]", "value": "alleviates DAMGO induced suppression of respiratory rhythm"}]}, {"smiles": "O=C(c1ccc2c(c1)OCCO2)N1CCCCC1", "note": "[CX546, 1-(1,4-benzodioxan-6-ylcarbonyl)piperidine]", "values": [{"measurement": "fentanyl-induced depression of respiratory frequency and phrenic burst amplitude", "setting": "[3]", "value": "counters"}, {"measurement": "baseline frequency and amplitude of breathing", "setting": "Sprague-Dawley rat; CX546 16 mg/kg i.p. on its own, newborn P0-P2 and adult rats", "value": "not significantly altered"}, {"measurement": "behaviour or arousal state (spontaneous movement, agitation, sedation)", "setting": "Sprague-Dawley rat; rat, in vivo, ip, 16 mg/kg", "value": "without any obvious effect"}, {"measurement": "frequency of rhythmic respiratory discharge", "setting": "[4]; E20 preparation, CX546 50-100 μM in bathing medium", "value": "markedly enhanced"}, {"measurement": "DAMGO-induced depression of respiratory frequency and amplitude", "setting": "[4]; P1-P2, DAMGO 800 nM, then CX546 200 μM bath-applied", "value": "alleviated; also recorded: partially reversed"}, {"measurement": "baseline respiratory frequency", "setting": "[4]; P3 preparations, bath-applied CX546", "value": "no effect on the baseline frequency"}, {"measurement": "respiratory frequency compared to control", "setting": "[4]; perinatal preparations E18-P0, bath-applied CX546", "value": "significant increase in frequency"}, {"measurement": "frequency of the rhythm and inspiratory drive potential", "setting": "[1]; current clamp, low extracellular K+", "value": "increased"}, {"measurement": "amplitude of inward inspiratory drive current", "setting": "[1]; voltage clamp, same neuron", "value": "marked increase"}, {"measurement": "time to restoration of frequency and amplitude to 3 mM [K+] bath levels", "setting": "[2]; CX546 400 μM bath-applied after rhythm ceased in 3 mM [K+]", "value": "≤ 2", "unit": "min"}, {"measurement": "effect on rhythmic respiratory activity after cessation", "setting": "[2]; CX546 400 μM bath-applied after rhythm ceased in 3 mM [K+], P2 slice", "value": "rapid and potent stimulation of respiratory networks; also recorded: restored rhythmic activity of XII motoneurons"}, {"measurement": "control values of respiratory frequency or amplitude of motor nerve discharge", "setting": "[2]; CX546 on its own, 9 mM [K+]o", "value": "did not significantly alter"}, {"measurement": "DAMGO-induced depression of respiratory frequency and amplitude", "setting": "[2]; P1-P2 slice, 9 mM [K+]o, DAMGO 800 nM, then CX546 200 μM bath-applied", "value": "alleviated; also recorded: partially reversed"}, {"measurement": "persistence of respiratory rhythm in presence of compound", "setting": "[2]; P2 slice, 3 mM [K+]o, CX546 in bath", "value": "> 3", "unit": "h"}, {"measurement": "Latency (s), hind paw withdrawal", "setting": "rats; Adult (2-3 months), drug alone i.p. (CX546 16 mg/kg pre-administration of fentanyl; fentanyl 130 μg/kg)", "value": "5.3 ± 2.1", "unit": "s"}, {"measurement": "Latency (s), hind paw withdrawal", "setting": "rats; Adult (2-3 months), post-administration of fentanyl 130 μg/kg, CX546 16 mg/kg or naloxone 1 mg/kg i.p.", "value": ">20* s"}, {"measurement": "sensitivity of thermal nociception tests in the control condition", "setting": "rats; CX546 16 mg/kg on its own", "value": "did not change the sensitivity"}, {"measurement": "Latency (s), hind paw withdrawal", "setting": "rats; Newborn (P1-P2), drug alone i.p. (CX546 16 mg/kg pre-administration of fentanyl; fentanyl 60 μg/kg)", "value": "4.3 ± 3.2", "unit": "s"}, {"measurement": "Latency (s), hind paw withdrawal", "setting": "rats; Newborn (P1-P2), post-administration of fentanyl 60 μg/kg, CX546 16 mg/kg or naloxone 1 mg/kg i.p.", "value": ">20* s"}, {"measurement": "fentanyl-induced analgesia after subsequent administration of the drug", "setting": "rats; newborn and adult rats, CX546 16 mg/kg or naloxone 1 mg/kg i.p.", "value": "persisted"}]}, {"smiles": "C[C@@H](NC(=O)[C@@H](N)Cc1ccc(O)cc1)C(=O)NCC(=O)N(C)[C@@H](Cc1ccccc1)C(=O)NCCO", "note": "[DAMGO, Tyr-D-Ala-Gly-N-methyl-Phe-Gly-ol-enkephalin, reference compound]", "values": [{"measurement": "respiratory frequency and amplitude", "setting": "[4]; P1 preparation, DAMGO 800 nM bath-applied", "value": "markedly suppressed"}, {"measurement": "respiratory frequency and amplitude", "setting": "[2]; P1 slice in 9 mM [K+]o, DAMGO 800 nM bath-applied", "value": "markedly suppressed"}]}]}
